ChEMBL document CHEMBL1208761, “Smoothened antagonists for hair inhibition” (Bioorg Med Chem Lett, 2010)
≈ marks a conversion by molar mass, not a printed value. Where “and” joins values, the source holds several entries; their conditions need not be identical. Identical values can stand only once. Calls of active or inactive are those of the source. The rule behind the calls is not given here.

Assays:
Mus musculus = organism: Mus musculus; test: Inhibition of hair growth in C3H/HeN mouse model assessed as inhibition of hair growth after 14 days; type: functional
Protein smoothened [1] = biological target: T1, Protein smoothened (Homo sapiens, UniProt Q99835); test: Inhibition of Smoothened transfected in HEK293 cells by binding assay; type: cell-based
T1 sequence (Q99835 whole entry): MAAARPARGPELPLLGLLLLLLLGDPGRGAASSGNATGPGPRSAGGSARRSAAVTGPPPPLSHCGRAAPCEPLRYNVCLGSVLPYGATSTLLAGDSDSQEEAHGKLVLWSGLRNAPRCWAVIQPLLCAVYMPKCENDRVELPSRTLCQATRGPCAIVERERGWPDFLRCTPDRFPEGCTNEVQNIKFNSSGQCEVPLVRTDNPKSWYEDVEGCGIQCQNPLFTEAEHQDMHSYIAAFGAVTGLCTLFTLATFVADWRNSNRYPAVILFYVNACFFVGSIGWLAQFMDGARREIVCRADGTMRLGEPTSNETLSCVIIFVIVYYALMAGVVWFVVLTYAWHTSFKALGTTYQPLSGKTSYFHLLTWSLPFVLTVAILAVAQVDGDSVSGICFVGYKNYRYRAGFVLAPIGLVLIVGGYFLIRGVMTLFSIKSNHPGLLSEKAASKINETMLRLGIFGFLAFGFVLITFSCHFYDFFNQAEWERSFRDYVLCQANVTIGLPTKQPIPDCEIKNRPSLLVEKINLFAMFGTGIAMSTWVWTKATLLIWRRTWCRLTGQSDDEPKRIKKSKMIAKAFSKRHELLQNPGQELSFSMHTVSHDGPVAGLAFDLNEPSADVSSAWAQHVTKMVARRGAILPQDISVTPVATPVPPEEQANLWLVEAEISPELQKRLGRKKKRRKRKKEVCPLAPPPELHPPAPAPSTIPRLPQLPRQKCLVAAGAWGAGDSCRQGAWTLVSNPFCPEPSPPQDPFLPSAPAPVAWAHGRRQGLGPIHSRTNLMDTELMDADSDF

Protein smoothened [2] = biological target: T1, Protein smoothened; test: Inhibition of Smoothened transfected in HEK293 cells by transient transfection cell-based assay
[3] = biological target: Beta-1 adrenergic receptor (Homo sapiens, UniProt P08588); test: Binding affinity to beta-1 adrenergic receptor
[4] = Binding affinity to calcium channel
[5] = biological target: Beta-2 adrenergic receptor (Homo sapiens, UniProt P07550); test: Binding affinity to beta2 adrenergic receptor
D(2) dopamine receptor = D(2) dopamine receptor (Homo sapiens, UniProt P14416); test: Binding affinity to dopamine D2 receptor
D(1A) dopamine receptor = D(1A) dopamine receptor (Homo sapiens, UniProt P21728); test: Binding affinity to dopamine D1 receptor
Sequence of D(1A) dopamine receptor (P21728 whole entry): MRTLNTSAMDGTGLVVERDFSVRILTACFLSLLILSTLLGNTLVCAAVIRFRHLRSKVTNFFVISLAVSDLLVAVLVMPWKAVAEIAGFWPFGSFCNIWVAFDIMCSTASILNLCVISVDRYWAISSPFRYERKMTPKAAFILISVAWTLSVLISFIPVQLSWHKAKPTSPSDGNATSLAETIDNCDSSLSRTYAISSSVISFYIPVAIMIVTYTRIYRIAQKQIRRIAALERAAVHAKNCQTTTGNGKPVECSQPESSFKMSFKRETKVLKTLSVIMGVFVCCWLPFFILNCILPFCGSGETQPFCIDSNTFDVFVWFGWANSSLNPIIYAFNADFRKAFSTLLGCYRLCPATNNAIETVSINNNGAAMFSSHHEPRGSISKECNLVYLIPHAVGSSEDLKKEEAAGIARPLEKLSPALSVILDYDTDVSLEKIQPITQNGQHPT

[6] = biological target: 5-hydroxytryptamine receptor 2A (Homo sapiens, UniProt P28223); test: Binding affinity to 5HT2A receptor
Sequence of 5-hydroxytryptamine receptor 2A (P28223 whole entry): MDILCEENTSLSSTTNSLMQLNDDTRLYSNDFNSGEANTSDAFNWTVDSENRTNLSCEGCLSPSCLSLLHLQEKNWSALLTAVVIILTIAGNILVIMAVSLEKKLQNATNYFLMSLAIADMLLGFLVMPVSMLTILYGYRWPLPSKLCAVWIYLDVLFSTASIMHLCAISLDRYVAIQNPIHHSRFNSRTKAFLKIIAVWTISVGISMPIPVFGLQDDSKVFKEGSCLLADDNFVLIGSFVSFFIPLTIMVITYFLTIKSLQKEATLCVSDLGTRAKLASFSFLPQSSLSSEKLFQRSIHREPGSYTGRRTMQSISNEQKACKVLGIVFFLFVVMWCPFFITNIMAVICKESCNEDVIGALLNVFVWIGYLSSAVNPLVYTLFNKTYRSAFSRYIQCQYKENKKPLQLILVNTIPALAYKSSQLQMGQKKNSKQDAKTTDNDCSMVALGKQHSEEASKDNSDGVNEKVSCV

[7] = biological target: 5-hydroxytryptamine receptor 2B (Homo sapiens, UniProt P41595); test: Binding affinity to 5HT2B receptor
Sequence of 5-hydroxytryptamine receptor 2B (P41595 whole entry): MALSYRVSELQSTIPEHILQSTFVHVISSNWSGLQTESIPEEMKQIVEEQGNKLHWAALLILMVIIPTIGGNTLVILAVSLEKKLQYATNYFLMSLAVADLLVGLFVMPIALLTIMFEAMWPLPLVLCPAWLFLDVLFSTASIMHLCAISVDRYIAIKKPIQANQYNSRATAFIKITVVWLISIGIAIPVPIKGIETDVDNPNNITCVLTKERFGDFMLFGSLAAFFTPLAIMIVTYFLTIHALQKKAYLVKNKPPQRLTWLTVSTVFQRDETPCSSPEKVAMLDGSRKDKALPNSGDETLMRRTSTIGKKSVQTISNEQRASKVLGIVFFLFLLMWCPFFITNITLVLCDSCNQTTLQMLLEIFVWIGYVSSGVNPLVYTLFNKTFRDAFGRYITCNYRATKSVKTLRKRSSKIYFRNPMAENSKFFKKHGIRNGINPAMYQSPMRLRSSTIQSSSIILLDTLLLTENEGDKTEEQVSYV

[8] = biological target: T2, 5-hydroxytryptamine receptor 1A (Homo sapiens, UniProt P08908); test: Binding affinity to 5HT1A receptor
T2 sequence (P08908 whole entry): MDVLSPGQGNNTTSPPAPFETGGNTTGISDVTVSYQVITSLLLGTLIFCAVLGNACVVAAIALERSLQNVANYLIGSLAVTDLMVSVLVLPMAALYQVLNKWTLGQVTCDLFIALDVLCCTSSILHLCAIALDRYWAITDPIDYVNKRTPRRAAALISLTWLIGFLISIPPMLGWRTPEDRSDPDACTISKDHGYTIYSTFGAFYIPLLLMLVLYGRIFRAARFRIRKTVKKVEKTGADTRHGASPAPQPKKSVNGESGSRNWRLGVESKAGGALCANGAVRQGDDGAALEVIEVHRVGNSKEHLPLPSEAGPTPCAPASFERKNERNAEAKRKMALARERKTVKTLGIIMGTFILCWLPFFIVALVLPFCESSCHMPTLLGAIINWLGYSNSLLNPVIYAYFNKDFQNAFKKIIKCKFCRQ

[9] = biological target: 5-hydroxytryptamine receptor 7 (Homo sapiens, UniProt P34969); test: Binding affinity to 5HT7 receptor
Sequence of 5-hydroxytryptamine receptor 7 (P34969 whole entry): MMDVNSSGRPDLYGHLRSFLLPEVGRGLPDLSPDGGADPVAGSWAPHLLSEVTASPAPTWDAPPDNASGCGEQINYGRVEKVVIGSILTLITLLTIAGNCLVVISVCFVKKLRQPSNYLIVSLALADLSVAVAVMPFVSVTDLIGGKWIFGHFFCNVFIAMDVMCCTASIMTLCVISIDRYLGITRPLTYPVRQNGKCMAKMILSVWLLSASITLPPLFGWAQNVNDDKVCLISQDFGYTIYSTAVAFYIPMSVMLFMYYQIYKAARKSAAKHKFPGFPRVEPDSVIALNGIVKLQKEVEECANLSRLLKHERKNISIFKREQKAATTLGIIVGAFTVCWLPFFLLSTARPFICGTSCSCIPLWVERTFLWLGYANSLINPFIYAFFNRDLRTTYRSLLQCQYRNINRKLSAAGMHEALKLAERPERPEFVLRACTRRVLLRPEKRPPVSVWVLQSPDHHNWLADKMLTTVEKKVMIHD

[10] = Apparent permeability from apical to basolateral side of cell membrane at 10 uM; type: ADME; conditions: not told
[11] = Metabolic stability in human liver microsomes assessed as half life; type: ADME, Microsome
[12] = biological target: T3, Alpha-1A adrenergic receptor (Homo sapiens, UniProt P35348); test: Binding affinity to adrenergic Alpha-1A receptor
T3 sequence (P35348 whole entry): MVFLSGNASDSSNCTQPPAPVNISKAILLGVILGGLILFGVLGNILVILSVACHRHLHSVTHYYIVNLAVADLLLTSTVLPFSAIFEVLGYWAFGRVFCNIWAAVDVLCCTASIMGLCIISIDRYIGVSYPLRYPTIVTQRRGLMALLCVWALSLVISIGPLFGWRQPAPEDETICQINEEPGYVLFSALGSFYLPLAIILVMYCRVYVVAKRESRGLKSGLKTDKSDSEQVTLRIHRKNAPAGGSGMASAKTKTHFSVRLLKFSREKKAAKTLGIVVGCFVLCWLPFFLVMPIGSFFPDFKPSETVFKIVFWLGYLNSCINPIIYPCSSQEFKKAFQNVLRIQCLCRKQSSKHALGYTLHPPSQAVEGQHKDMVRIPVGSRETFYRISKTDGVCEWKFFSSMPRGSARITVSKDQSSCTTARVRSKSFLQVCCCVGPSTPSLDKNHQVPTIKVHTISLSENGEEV

D(4) dopamine receptor = biological target: T4, D(4) dopamine receptor (Homo sapiens, UniProt P21917); test: Binding affinity to dopamine D4 receptor
T4 sequence (P21917 whole entry): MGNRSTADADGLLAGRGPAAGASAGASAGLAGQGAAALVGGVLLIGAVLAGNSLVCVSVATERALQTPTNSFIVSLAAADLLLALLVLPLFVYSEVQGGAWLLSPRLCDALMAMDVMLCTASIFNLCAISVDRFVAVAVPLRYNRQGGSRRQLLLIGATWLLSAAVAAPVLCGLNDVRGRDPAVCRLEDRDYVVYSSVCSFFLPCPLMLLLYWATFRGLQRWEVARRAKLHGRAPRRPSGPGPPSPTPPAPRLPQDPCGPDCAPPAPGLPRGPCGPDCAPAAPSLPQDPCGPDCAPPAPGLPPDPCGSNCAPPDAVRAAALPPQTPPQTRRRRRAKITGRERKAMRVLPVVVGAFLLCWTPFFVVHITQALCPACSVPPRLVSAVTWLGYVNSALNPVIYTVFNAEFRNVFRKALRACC

hERG (KCNH2) = hERG (KCNH2) (Homo sapiens, UniProt Q12809); test: Inhibition of human ERG at 3 uM
Sequence of hERG (KCNH2) (Q12809 whole entry): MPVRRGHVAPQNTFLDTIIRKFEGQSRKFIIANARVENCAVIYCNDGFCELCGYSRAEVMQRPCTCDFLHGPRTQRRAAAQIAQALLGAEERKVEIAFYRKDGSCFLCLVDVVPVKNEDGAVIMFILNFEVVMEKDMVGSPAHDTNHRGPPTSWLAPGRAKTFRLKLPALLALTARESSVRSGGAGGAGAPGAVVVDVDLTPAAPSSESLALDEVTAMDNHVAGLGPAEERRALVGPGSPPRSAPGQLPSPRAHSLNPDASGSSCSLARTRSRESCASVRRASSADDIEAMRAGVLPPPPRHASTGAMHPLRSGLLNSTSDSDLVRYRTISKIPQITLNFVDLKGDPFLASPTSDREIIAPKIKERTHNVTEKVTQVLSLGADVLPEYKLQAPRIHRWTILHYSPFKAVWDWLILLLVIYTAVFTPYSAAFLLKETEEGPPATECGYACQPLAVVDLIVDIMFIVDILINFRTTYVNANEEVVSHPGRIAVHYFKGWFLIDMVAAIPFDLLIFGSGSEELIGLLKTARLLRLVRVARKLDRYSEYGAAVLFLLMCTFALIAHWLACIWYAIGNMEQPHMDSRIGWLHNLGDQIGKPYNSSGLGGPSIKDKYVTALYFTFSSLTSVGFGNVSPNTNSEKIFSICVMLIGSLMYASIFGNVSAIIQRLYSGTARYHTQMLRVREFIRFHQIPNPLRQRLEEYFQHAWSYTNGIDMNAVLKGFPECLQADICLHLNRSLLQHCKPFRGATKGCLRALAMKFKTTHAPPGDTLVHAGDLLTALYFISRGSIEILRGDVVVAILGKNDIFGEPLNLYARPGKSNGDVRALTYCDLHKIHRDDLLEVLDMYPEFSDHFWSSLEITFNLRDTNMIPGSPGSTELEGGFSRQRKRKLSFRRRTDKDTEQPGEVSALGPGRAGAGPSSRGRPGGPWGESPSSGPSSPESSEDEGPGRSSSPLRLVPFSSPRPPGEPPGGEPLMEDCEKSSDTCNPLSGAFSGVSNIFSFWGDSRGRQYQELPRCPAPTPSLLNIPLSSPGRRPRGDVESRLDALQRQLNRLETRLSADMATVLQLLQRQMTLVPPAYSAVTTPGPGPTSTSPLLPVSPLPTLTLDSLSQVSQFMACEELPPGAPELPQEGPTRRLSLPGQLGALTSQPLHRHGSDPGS

Zone of skin = test: Permeability of the compound in human skin assessed as skin penetration relative to isobutylmethylxanthine; type: ADME, tissue-based
[13] = biological target: Voltage-gated inwardly rectifying potassium channel KCNH2 (Homo sapiens, UniProt Q12809); test: Binding affinity to human ERG
Sequence of Voltage-gated inwardly rectifying potassium channel KCNH2 (Q12809 whole entry): as above

[14] = biological target: T5, Alpha-1B adrenergic receptor (Homo sapiens, UniProt P35368); test: Binding affinity to adrenergic alpha-1b receptor
T5 sequence (P35368 whole entry): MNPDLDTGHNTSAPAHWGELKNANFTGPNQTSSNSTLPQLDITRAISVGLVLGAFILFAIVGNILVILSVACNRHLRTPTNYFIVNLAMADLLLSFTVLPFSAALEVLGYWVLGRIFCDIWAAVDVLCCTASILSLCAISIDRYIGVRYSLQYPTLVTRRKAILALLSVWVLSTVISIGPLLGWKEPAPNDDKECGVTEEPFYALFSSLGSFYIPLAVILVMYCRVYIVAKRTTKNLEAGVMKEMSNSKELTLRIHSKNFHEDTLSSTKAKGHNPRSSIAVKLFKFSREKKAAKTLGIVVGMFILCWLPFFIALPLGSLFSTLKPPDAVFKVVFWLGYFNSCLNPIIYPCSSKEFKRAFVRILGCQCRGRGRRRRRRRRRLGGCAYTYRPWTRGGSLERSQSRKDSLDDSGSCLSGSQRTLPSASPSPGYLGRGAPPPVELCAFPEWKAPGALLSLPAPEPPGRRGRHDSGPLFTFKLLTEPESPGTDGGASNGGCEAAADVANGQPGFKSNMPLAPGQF

[15] = Inhibition of CYP450; type: ADME
[16] = Solubility of the compound; type: physicochemical
[17] = Metabolic stability in rat liver microsomes assessed as half life; type: ADME, Microsome

| Structure (SMILES) | IC50 (Protein smoothened [1]) [nM] | IC50 (Protein smoothened [2]) [nM] | further results |
| --- | --- | --- | --- |
| Cc1nn(-c2ccccc2)c(C)c1/C=N/N1CCN(Cc2ccccc2)CC1 | 25 | 4.74 | inhibition (INH) (Mus musculus): 3% |
| COc1ccc(N2CCN(Cc3cnn(-c4ccccc4)c3C)CC2)cc1 | 126 | 105 |  |
| COc1ccc(OC)c(C2CCN(Cc3cnn(-c4ccccc4F)c3C)C2)c1 (configuration not stated) | 216 | 40.8 | hair growth inhibition (active/inactive call) (Mus musculus): Active; Ki [3]: > 1000 nM; Ki [4]: > 1000 nM; Ki [5]: > 1000 nM; Ki (D(2) dopamine receptor): > 1000 nM; Ki (D(1A) dopamine receptor): > 1000 nM; Ki [6]: > 1000 nM; Ki [7]: 180 nM; Ki [8]: 103 nM; Ki [9]: 15 nM |
| Cc1nn(-c2ccccc2)c(Cl)c1CN1CCN(c2ccc(F)cc2)CC1 | 10 | 1860 |  |
| COc1cccc(N2CCN(Cc3c(C)nn(-c4ccc(F)cc4)c3C)CC2)c1 | 20 | 823 |  |
| COc1ccc(N2CCN(Cc3c(C)nn(-c4ccc(F)cc4)c3C)CC2)cc1 | 2000 | 1690 |  |
| NCCCC(N)(C(=O)O)C(F)F (configuration not stated) [EFLORNITHINE] |  |  | inhibition (INH) (Mus musculus): 13.9% |
| Cc1c(CN2CCN(c3cccc(C(F)(F)F)c3)CC2)cnn1-c1ccccc1 | 333 | 328 |  |
| Cc1nn(-c2ccccc2)cc1CN1CCN(c2ccc(F)cc2)CC1 | > 5000 | > 5000 |  |
| COc1ccc(N2CCN(Cc3cn(-c4ccccc4)nc3C)CC2)cc1 | > 5000 | > 5000 |  |
| COc1cccc(N2CCN(Cc3cnn(-c4ccc(F)cc4)c3C)CC2)c1 | 5 | 64.7 |  |
| COc1ccccc1N1CCN(Cc2c(C)nn(-c3ccccc3)c2C)CC1 | > 5000 | 1870 |  |
| COc1cccc(F)c1OC1CN(Cc2cnn(-c3ccccc3)c2C)C1 | 124 | 8.27 | hair growth inhibition (active/inactive call) (Mus musculus): Active; Papp A→B at 10 µM [10]: 11.3 ×10⁻⁶ cm/s; half-life [11]: 30.2 min; Ki [12]: 76 nM; Ki (D(4) dopamine receptor): 148 nM and > 1000 nM; inhibition at 3 µM (hERG (KCNH2)): 56%; Ratio (Zone of skin): 0.52; Ki [13]: > 1000 nM; Ki [6]: > 1000 nM; Ki [8]: > 1000 nM; Ki [14]: > 1000 nM; inhibition (INH) [15]: Not Active; solubility [16]: 79 µg/mL (≈ 215 µM); half-life [17]: 9.7 min |
| Cc1c(CN2CCN(c3ccccc3)CC2)cnn1-c1ccccc1 | 96 | 78.4 |  |
